According to patent US20250375435A1, “COMPOUNDS FOR TREATING INFECTIONS” (Ohio State Innovation Foundation, priority 2022, published 2025):

Tested on: Salmonella
Assay: Single-infection mouse model with probiotic strain added 1:1 to wild-type or fraB mutant Salmonella
Format: in vivo, streptomycin-treated Swiss Webster mice
Details: presence or absence of probiotic or exogenous F-Asn, day 4 post-infection
Description: A quadruple mutant designated ASD203 (ASPII ASPI2 AfraRBDAE4 AasnB80:kan) was evaluated for use as a probiotic in combination with FraB inhibitors. This is a strain of Salmonella lacking SPI1 and SPI2 so that it cannot induce inflammation. Additionally, this strain cannot consume F-Asn due to a deletion of the entire fra island (fraR-fraBDAE). The ansB gene was also deleted as this asparaginase is capable of converting F-Asn to F-Asp. The addition of this probiotic should provide an inflammation resistant competitor to Salmonella for all nutrients except F-Asn, effectively forcing the use of F-Asn as a nutrient. […]
Mouse modeling experiments—For competition experiments, a 1:1 mixture of two different bacterial strains were inoculated intragastrically (i.g.) and then recovered from ceca to determine the competitive index (CI) of the two strains. […] CI was determined by plating on media selective for WT (LB cam) and mutant (LB kan). For the competitions with the fraB F214A mutant which is not marked, CI was determined by screening 52 individual colonies recovered from XLD plates for antibiotic resistance by patching on LB plates containing the appropriate antibiotic, thus the limit of detection on these experiments is less than two logs. […] CFU enumeration was determined by plating on media selective for WT (LB cam) and the mutant (LB kan). […]

## fructose-asparagine [F-Asn]
  numbers of fraB mutant bacteria recovered: not significantly different
